Results as given in patent publication US5110976A, “Insecticidal composition comprising more than one active ingredient” (priority 1985, dated 1992).

Assays:
L. decemlineata = experiment: 5 EC formulations sprayed on glass plates (Table 20); type: in vivo, imagos; conditions: 5 EC formulation, 48 hours
Description: The 5 EC formulations prepared according to Example 42 are diluted 50x, 100x, 200x, 400x, 800x and 1600x with water and 0.5 ml doses are sprayed onto glass plates. After drying 10 L. decemlineata imagos are placed on each glass plate and the insects are covered with Petri-dishes. The tests are carried out by using 6 doses and 3 parallels for each dose. The killed insects are counted after 48 hours.

A. matricariae [1] = experiment: Direct contact test on pupae (Table 26); type: in vivo
Description: Mature pupae of A. matricariae on paprika leaves in Petri-dishes are exposed to a direct spray of the active ingredients. Two or three days before emergence paprika leaves with parasitized pupae are used. The leaves are laid on moistened filter paper in a plastic Petri-dish.
Application of treatment: See Example 57.
The pieces of leaf are transferred after treatment to clean Petri-dish bottoms. The trays are stored in a climatic chamber at 20° C. temperature, 70% relative humidity and a light-dark cycle of 16-8 h. Surviving pupae hatch after 2-3 days. The numbers of hatched and dead pupae are counted.

Colorado potato beetle = experiment: Plot field test on Colorado potato beetle (Table 24); type: in vivo, adults; conditions: 10 g active ingredients/ha
Description: The treatments are performed on a 25 m^2 plot strongly infected with Colorado potato beetle. 10 plants per plot are specially marked on which the Colorado potato beetles were counted previously. (During assessment of the number of pests only adults of the second Summer generation are taken into consideration, because at the point of time of the test the ratio of larvae of stages L3 and L4 is negligible). Treatment is accomplished on 25 M^2 plots at a dose of 10 g of active ingredients/ha with aqueous suspensions of the formulations according to Example 37 and three parallels are used. The test is evaluated by counting the leave insects on the marked plants. The average values of three parallel tests are disclosed in Table 24.

[2] = tested on: Leptinotarsa decemlineara larvae; experiment: Paralysis of larvae on sprayed tomato plants (Table 23); type: in vivo, L3 stage larvae; conditions: 6 hours
Description: Tomato plants pre-cultivated in pots are sprayed with a suspension of the active ingredient formed with a mixture of acetone and water. The treated plants are placed into isolators and infected with L3 stage Leptinotarsa decemlineara larvae. The percental ratio of paralyzed larvae which fall down from the plants is determined after 6 hours.

Aphidinus matricariae = experiment: Residual contact test on adults (Table 25); type: in vivo, adult females
Description: Residual contact test on adults of Aphidinus matricariae. Adults of A. matricariae are exposed to residues of the active ingredients freshly applied on glass plates forming cages, then the survivors are counted.
Treatment: test product and control treated with water.
Replicates: at least 3. Plot size (net): 1 cage.
Parasites of known age (24 hours) are used. […]
10 females of A. matricariae are introduced into each cage and supplied with honey as food. The number of females surviving exposure is determined after 1, 5 and 24 hours, in independent runs. Total number of survivors is calculate for each cage.

Acanthoscelides obtectus = experiment: Impregnated filter paper disc contact test, mortality (Table 1); type: in vivo, bean weevil (Acanthoscelides obtectus), imago; conditions: for mortality at 20 µg/disc / mortality at 70 µg/disc / mortality at 220 µg/disc / mortality at 670 µg/disc / mortality at 2000 µg/disc / mortality at 6000 µg/disc: Acanthoscelides obtectus, 24 hours, Abbot corrected; for mortality at 20 µg/disc: 0.02 mg/disc; for mortality at 70 µg/disc: 0.07 mg/disc; for mortality at 220 µg/disc: 0.22 mg/disc; for mortality at 670 µg/disc: 0.67 mg/disc; for mortality at 2000 µg/disc: 2.0 mg/disc; for mortality at 6000 µg/disc: 6.0 mg/disc
Description: (§1) The stereoisomers are dissolved in a 1:2 mixture of mineral oil and acetone and filter paper discs (Whatman No. 1., diameter 9 cm) are impregnated with the corresponding dosage of the solution of the active ingredient. The acetone is allowed to evaporate and the insects are examined on filter paper discs placed into Petri-dishes. Three parallels are used for each dose and 15 animals are placed in each Petri-dish. Mortality rate is determined after 24 hours. The corrected mortality % data are calculated by means of the Abbot formula.

Lucilia sericata = experiment: as above; type: in vivo, sheep maggot fly (Lucilia sericata), imago; conditions: for mortality at 20 µg/disc / mortality at 70 µg/disc / mortality at 220 µg/disc / mortality at 670 µg/disc / mortality at 2000 µg/disc / mortality at 6000 µg/disc: Lucilia sericata, 24 hours, Abbot corrected; for mortality at 20 µg/disc: 0.02 mg/disc; for mortality at 70 µg/disc: 0.07 mg/disc; for mortality at 220 µg/disc: 0.22 mg/disc; for mortality at 670 µg/disc: 0.67 mg/disc; for mortality at 2000 µg/disc: 2.0 mg/disc; for mortality at 6000 µg/disc: 6.0 mg/disc
Description: as §1

A. matricariae [3] = experiment: Residual contact test on adults (Table 4); type: in vivo, Aphidinus matricariae, adult females
Description: Adults of A. matricariae are exposed to residues of the active ingredients freshly applied on glass plates forming cages then the survivors are counted.
Treatments: test products(s) and control treated with water.
Replicates: at least 3. Plot size (net) 1 cage.
Parasites of known age 24 hours are used.
The products are applied at 5-1 ppm concentration, to each of the glass plates.
10 females of A. matricariae are introduced into each cage and supplied with honey as food. The number of females surviving exposure is determined after 1.5 and 24 hours, in independent runs. Total number of survivors is calculated for each cage.

[4] = Acute toxicity on rats and selectivity index; conditions: rat, in vivo; for LD50: po, rats, p.o., read-out: approximate LD50 toxicity; for selectivity ratio: quotient of approximate LD50 values on rats and house fly
Text: (§2) The said selectivity index of the enantiomer-pair Ia amounts to 50/0.45=111.
(§3) In addition to the synergistic effect the composition of the present invention has a number of further advantages too and for this reason it is an outstanding product. It is very important that the compositions of the present invention are less toxical towards mammals than the hitherto known compositions of similar efficiency. […] The said selectivity index of Ia amounts to 50/0.45=111.

tribolium confusum = experiment: Impregnated filter paper disc contact test, mortality (Table 1); type: in vivo, flour-beetle (tribolium confusum), imago; conditions: for mortality at 20 µg/disc / mortality at 70 µg/disc / mortality at 220 µg/disc / mortality at 670 µg/disc / mortality at 2000 µg/disc / mortality at 6000 µg/disc: Tribolium confusum, 24 hours, Abbot corrected; for mortality at 20 µg/disc: 0.02 mg/disc; for mortality at 70 µg/disc: 0.07 mg/disc; for mortality at 220 µg/disc: 0.22 mg/disc; for mortality at 670 µg/disc: 0.67 mg/disc; for mortality at 2000 µg/disc: 2.0 mg/disc; for mortality at 6000 µg/disc: 6.0 mg/disc
Description: as §1

house fly = experiment: Topical LD50 on house fly (mg/kg); type: in vivo; conditions: Musca domestica, approximate, topically
Text: as §2, §3

[5] = 0 days after treatment (control 211)
[6] = 1 day after treatment (control 206)
[7] = 3 days after treatment (control 179)
[8] = 9 days after treatment (control 183)

CC1(C)C(C=C(Cl)Cl)C1C(=O)OC(C#N)c1cccc(Oc2ccccc2)c1 (stereo not shown) [Ia:Ib = 4:6]
Mortality % (L. decemlineata; dilution 50x, 2880 min): 93% | Mortality % (L. decemlineata; dilution 100x, 2880 min): 80% | Mortality % (L. decemlineata; dilution 200x, 2880 min): 73% | Mortality % (L. decemlineata; dilution 400x, 2880 min): 53% | Mortality % (L. decemlineata; dilution 800x, 2880 min): 33% | Mortality % (L. decemlineata; dilution 1600x): 0% | Mortality % (A. matricariae [1]; 1 ppm): 0% | Mortality % (A. matricariae [1]; 5 ppm): 0% | Mortality % (A. matricariae [1]; 10 ppm): 0% | Mortality % (A. matricariae [1]; 33 ppm): 14.3% | Average number of live insects/10 plants (Colorado potato beetle; [5]): 213 | Average number of live insects/10 plants (Colorado potato beetle; [6]): 8 | Average number of live insects/10 plants (Colorado potato beetle; [7]): 4 | Average number of live insects/10 plants (Colorado potato beetle; [8]): 22 | % ratio of paralyzed larvae ([2]; 8 ppm): 60% | % ratio of paralyzed larvae ([2]; 40 ppm): 75% | % ratio of paralyzed larvae ([2]; 200 ppm): 100% | % ratio of paralyzed larvae ([2]; 1000 ppm): 100% | Mortality % (Aphidinus matricariae; 1 ppm, 1h): 50% | Mortality % (Aphidinus matricariae; 1 ppm, 5h): 90% | Mortality % (Aphidinus matricariae; 1 ppm, 24h): 63% | Mortality % (Aphidinus matricariae; 5 ppm, 1h): 100%

CC1(C)[C@H](C(=O)O[C@H](C#N)c2cccc(Oc3ccccc3)c2)[C@@H]1C=C(Cl)Cl (relative stereo) [Ia]
mortality at 20 µg/disc (Acanthoscelides obtectus): 10% | mortality at 70 µg/disc (Acanthoscelides obtectus): 37% | mortality at 220 µg/disc (Acanthoscelides obtectus): 63% | mortality at 670 µg/disc (Acanthoscelides obtectus): 100% | mortality at 2000 µg/disc (Acanthoscelides obtectus): 100% | mortality at 6000 µg/disc (Acanthoscelides obtectus): 100% | Mortality % (L. decemlineata; dilution 50x): 97% | Mortality % (L. decemlineata; dilution 100x): 87% | Mortality % (L. decemlineata; dilution 200x): 63% | Mortality % (L. decemlineata; dilution 400x): 53% | Mortality % (L. decemlineata; dilution 800x): 27% | Mortality % (L. decemlineata; dilution 1600x): 0% | mortality at 20 µg/disc (Lucilia sericata): 0% | mortality at 70 µg/disc (Lucilia sericata): 30% | mortality at 220 µg/disc (Lucilia sericata): 29% | mortality at 670 µg/disc (Lucilia sericata): 57% | mortality at 2000 µg/disc (Lucilia sericata): 60% | mortality at 6000 µg/disc (Lucilia sericata): 65% | Mortality % (A. matricariae [3]; 1 ppm, 1h): 100% | Mortality % (A. matricariae [3]; 1 ppm, 5h): 100% | Mortality % (A. matricariae [3]; 1 ppm, 24h): 96% | Mortality % (A. matricariae [3]; 5 ppm, 1h): 100% | LD50 [4]: ~50 mg/kg | selectivity ratio [4]: 111 | Mortality % (A. matricariae [1]; 1 ppm): 0% | Mortality % (A. matricariae [1]; 5 ppm): 0% | Mortality % (A. matricariae [1]; 10 ppm): 12.5% | Mortality % (A. matricariae [1]; 33 ppm): 77.0% | Average number of live insects/10 plants (Colorado potato beetle; [5]): 171 | Average number of live insects/10 plants (Colorado potato beetle; [6]): 11 | Average number of live insects/10 plants (Colorado potato beetle; [7]): 9 | Average number of live insects/10 plants (Colorado potato beetle; [8]): 25 | mortality at 20 µg/disc (tribolium confusum): 0% | mortality at 70 µg/disc (tribolium confusum): 18% | mortality at 220 µg/disc (tribolium confusum): 51% | mortality at 670 µg/disc (tribolium confusum): 100% | mortality at 2000 µg/disc (tribolium confusum): 100% | mortality at 6000 µg/disc (tribolium confusum): 100% | % ratio of paralyzed larvae ([2]; 8 ppm): 18% | % ratio of paralyzed larvae ([2]; 40 ppm): 46% | % ratio of paralyzed larvae ([2]; 200 ppm): 100% | % ratio of paralyzed larvae ([2]; 1000 ppm): 100% | LD50 (house fly): ~0.45 mg/kg | Mortality % (Aphidinus matricariae; 1 ppm, 1h): 100% | Mortality % (Aphidinus matricariae; 1 ppm, 5h): 100% | Mortality % (Aphidinus matricariae; 1 ppm, 24h): 96% | Mortality % (Aphidinus matricariae; 5 ppm, 1h): 100%

CC1(C)[C@H](C=C(Cl)Cl)[C@H]1C(=O)O[C@H](C#N)c1cccc(Oc2ccccc2)c1 (relative stereo) [Ib]
mortality at 20 µg/disc (Acanthoscelides obtectus): 32% | mortality at 70 µg/disc (Acanthoscelides obtectus): 55% | mortality at 220 µg/disc (Acanthoscelides obtectus): 87% | mortality at 670 µg/disc (Acanthoscelides obtectus): 100% | mortality at 2000 µg/disc (Acanthoscelides obtectus): 100% | mortality at 6000 µg/disc (Acanthoscelides obtectus): 100% | comparative activity (Acanthoscelides obtectus; Ib versus Ia): more active than enantiomer-pair Ia | comparative activity (Lucilia sericata; Ib versus Ia): more active than enantiomer-pair Ia | mortality at 20 µg/disc (Lucilia sericata): 22% | mortality at 70 µg/disc (Lucilia sericata): 55% | mortality at 220 µg/disc (Lucilia sericata): 70% | mortality at 670 µg/disc (Lucilia sericata): 75% | mortality at 2000 µg/disc (Lucilia sericata): 100% | mortality at 6000 µg/disc (Lucilia sericata): 100% | Mortality % (A. matricariae [3]; 1 ppm, 1h): 0% | Mortality % (A. matricariae [3]; 1 ppm, 5h): 75% | Mortality % (A. matricariae [3]; 1 ppm, 24h): 88% | Mortality % (A. matricariae [3]; 5 ppm, 1h): 100% | LD50 [4]: ~5000 mg/kg | selectivity ratio [4]: 7800 | comparative activity (tribolium confusum; Ib versus Ia): more active than enantiomer-pair Ia | mortality at 20 µg/disc (tribolium confusum): 14% | mortality at 70 µg/disc (tribolium confusum): 73% | mortality at 220 µg/disc (tribolium confusum): 100% | mortality at 670 µg/disc (tribolium confusum): 100% | mortality at 2000 µg/disc (tribolium confusum): 100% | mortality at 6000 µg/disc (tribolium confusum): 100% | LD50 (house fly): ~0.64 mg/kg
